# Data reported in publication PMC5299038 (Structure (London, England : 1993), 2017).
# Assays:
# TpCADE [1] = target: TpCADE (Trueperella pyogenes, UniProt Z9JAQ5MWQ7); experiment: coupled glucose oxidase assay; format: biochemical; conditions: hydrolysis of the alpha-1,3-linkages
# TpCADE [2] = conditions: hydrolysis of the alpha-1,3-linkages
substance,measurement,setting,value
cycloalternan,Km,TpCADE [1],2.1 ± 0.2 mM
same,Km,TpCADE [2],9.3 ± 1.5 mM
